Laboratory results reported in PMC5386260, “Acute development of cortical porosity and endosteal naïve bone formation from the daily but not weekly short-term administration of PTH in rabbit” (PLoS ONE, 2017).
Read-outs that look alike come from different tables or passages of the source.

Assay: Plasma TPTD concentration and pharmacokinetics (Rat PTH IRMA Kit, non-compartmental model)
Assay type: in vivo, rabbit
Details: for level at 2 h / level at 5 min / level at 0.25 h / level at 0.5 h / level at 1 h: female, New Zealand White (Kbl:NZW), rabbit, plasma, sc, IRMA, mean; for AUC / Cmax / Tmax / half-life: in vivo; for half-life: read-out: T1/2 (elimination half-life) of plasma TPTD (converted)
Source text: Seventeen female New Zealand White rabbits (Kbl:NZW) were purchased from Kitayama Labs (Nagano, Japan) and were allowed to acclimatize with free access to water and food for 6 days before use. Throughout the experimental study, the animals were housed individually under a 12-h light/dark cycle with free access to water, but their food intake was restricted to 120g /day (LRC4, standard diet for rabbits; Oriental Yeast, Tokyo, Japan). The animals at 6 months of age were divided into 5 groups and were subcutaneously injected with 20 or 40 μg/kg of TPTD once-daily (D20 group [n = 3] and D40 group [n = 3], 140 or 280 μg/kg of TPTD once-weekly (W140 group [n = 3] and W280 group [n = 4]) for four weeks (Table 1). For the high-dose administration of TPTD, the dosage in once-daily treatment was set at 40 μg/kg/day based on a previous study, while the dosage of once-weekly TPTD treatment was set at 280 μg/kg/week; thus, the cumulative dose of TPTD each week was the same with the two treatment frequencies. In the W140 and W280 groups, saline was administered every day, except for the days on which TPTD was administered. Saline injections were administered to control animals (C group, n = 4) once daily and to each group as a vehicle.
[…] The samples were centrifuged at 1600 x g, at 4°C for 10 minutes and plasma samples were collected in order to measure the concentration of TPTD. […]
Teriparatide acetate was synthesized at Asahi Kasei Pharma Corporation (Tokyo, Japan) and was used as a standard substance. The teriparatide acetate concentration in the rabbit plasma was quantified using a Rat PTH IRMA Kit (Immutopics, Inc., San Clemente, CA) according to the manufacturer’s instructions. The pharmacokinetic parameters were calculated using a non-compartmental model (Phoenix WinNonlin; Pharsight, Mountain View, CA).

[1] = 20 ug/kg, rabbit plasma, D20 (20 μg/kg sc once-daily), n=3, mean ± SD
[2] = 40 ug/kg, rabbit plasma, D40 (40 μg/kg sc once-daily), n=3, mean ± SD
[3] = 140 ug/kg, rabbit plasma, W140 (140 μg/kg sc once-weekly), n=3, mean ± SD
[4] = 280 ug/kg, rabbit plasma, W280 (280 μg/kg sc once-weekly), n=4, mean ± SD

CC[C@H](C)[C@H](NC(=O)[C@H](CCC(=O)O)NC(=O)[C@H](CO)NC(=O)[C@@H](NC(=O)[C@@H](N)CO)C(C)C)C(=O)N[C@@H](CCC(N)=O)C(=O)N[C@@H](CC(C)C)C(=O)N[C@@H](CCSC)C(=O)N[C@@H](Cc1cnc[nH]1)C(=O)N[C@@H](CC(N)=O)C(=O)N[C@@H](CC(C)C)C(=O)NCC(=O)N[C@@H](CCCCN)C(=O)N[C@@H](Cc1cnc[nH]1)C(=O)N[C@@H](CC(C)C)C(=O)N[C@@H](CC(N)=O)C(=O)N[C@@H](CO)C(=O)N[C@@H](CCSC)C(=O)N[C@@H](CCC(=O)O)C(=O)N[C@@H](CCCN=C(N)N)C(=O)N[C@H](C(=O)N[C@@H](CCC(=O)O)C(=O)N[C@@H](Cc1c[nH]c2ccccc12)C(=O)N[C@@H](CC(C)C)C(=O)N[C@@H](CCCN=C(N)N)C(=O)N[C@@H](CCCCN)C(=O)N[C@@H](CCCCN)C(=O)N[C@@H](CC(C)C)C(=O)N[C@@H](CCC(N)=O)C(=O)N[C@@H](CC(=O)O)C(=O)N[C@H](C(=O)N[C@@H](Cc1cnc[nH]1)C(=O)N[C@@H](CC(N)=O)C(=O)N[C@@H](Cc1ccccc1)C(=O)O)C(C)C)C(C)C [TPTD, Teriparatide]
level at 2 h (140 ug/kg, Day 22, 2 hour, W140 (140 μg/kg sc once-weekly), n=3): 37.8 ng/mL
level at 5 min (280 ug/kg, Day 1, 5 min, W280 (280 μg/kg sc once-weekly), n=4): 60.6 ng/mL
level at 0.25 h (280 ug/kg, Day 1, 15 min, W280 (280 μg/kg sc once-weekly), n=4): 177 ng/mL
level at 0.5 h (280 ug/kg, Day 1, 30 min, W280 (280 μg/kg sc once-weekly), n=4): 295 ng/mL
level at 1 h (280 ug/kg, Day 1, 1 hour, W280 (280 μg/kg sc once-weekly), n=4): 255 ng/mL
level at 2 h (280 ug/kg, Day 1, 2 hour, W280 (280 μg/kg sc once-weekly), n=4): 87.4 ng/mL
level at 5 min (280 ug/kg, Day 22, 5 min, W280 (280 μg/kg sc once-weekly), n=4): 67.7 ng/mL
level at 0.25 h (280 ug/kg, Day 22, 15 min, W280 (280 μg/kg sc once-weekly), n=4): 232 ng/mL
level at 0.5 h (280 ug/kg, Day 22, 30 min, W280 (280 μg/kg sc once-weekly), n=4): 356 ng/mL
level at 1 h (280 ug/kg, Day 22, 1 hour, W280 (280 μg/kg sc once-weekly), n=4): 280 ng/mL
level at 2 h (280 ug/kg, Day 22, 2 hour, W280 (280 μg/kg sc once-weekly), n=4): 62.4 ng/mL
AUC [1]: 21.1 ± 3.67 ng·h/mL
Cmax [1]: 19.8 ± 5.67 ng/mL
Tmax [1]: 30 min
half-life (20 ug/kg, rabbit plasma, D20 (20 μg/kg sc once-daily), n=3, non-compartmental, mean ± SD): 26.4 ± 9 min
AUC [2]: 46.8 ± 10.7 ng·h/mL
Cmax [2]: 34.3 ± 8.19 ng/mL
Tmax [2]: 30 min
half-life (40 ug/kg, rabbit plasma, D40 (40 μg/kg sc once-daily), n=3, non-compartmental, mean ± SD): 55.8 ± 19.2 min
AUC [3]: 188 ± 35.5 ng·h/mL
Cmax [3]: 133 ± 28 ng/mL
Tmax [3]: 40.2 ± 17.4 min
half-life (140 ug/kg, rabbit plasma, W140 (140 μg/kg sc once-weekly), n=3, non-compartmental, mean ± SD): 55.8 ± 9.6 min
AUC [4]: 390 ± 75.6 ng·h/mL
Cmax [4]: 315 ± 67.8 ng/mL
Tmax [4]: 45 ± 17.4 min
half-life (280 ug/kg, rabbit plasma, W280 (280 μg/kg sc once-weekly), n=4, non-compartmental, mean ± SD): 41.4 ± 16.2 min
Tmax post-dose (rabbit plasma, D20 (20 μg/kg sc once-daily)): 30 min
Tmax post-dose (rabbit plasma, D40 (40 μg/kg sc once-daily)): 30 min
estimated Tmax post-dose (rabbit plasma, W140 (140 μg/kg sc once-weekly)): 40 min
T1/2 (elimination half-life) of plasma TPTD (rabbit plasma, W140 (140 μg/kg sc once-weekly), n=3, non-compartmental, mean ± SD): 55.8 ± 9.6 min
estimated Tmax post-dose (rabbit plasma, W280 (280 μg/kg sc once-weekly)): 45 min
